Assays:
Assay in all cases: relative viability (nuclei count vs DMSO), 5 days (fraction); higher = more cells survive
HCC-15 = test system: HCC-15
How it was run: (§1)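 Lung cancer cell lines, seeded in 1536-well plates, were treated the following day by pin tool with a single drug or with five library-drug doses (not always all listed) in √10 steps on top of a fixed anchor-drug dose. Cells were fixed and nuclei stained in one step after 5 days, and nuclei were counted. Relative viability is the nuclei count for treated wells divided by that for vehicle wells, reported as medians of duplicate plates.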

NCI-H650 = test system: NCI-H650
How it was run: as §1

NCI-H1915 = test system: NCI-H1915
How it was run: as §1

NCI-H1703 = test system: NCI-H1703
How it was run: as §1

NCI-H1648 = test system: NCI-H1648
How it was run: as §1

NCI-H1975 = test system: NCI-H1975
How it was run: as §1

NCI-H1793 = test system: NCI-H1793
How it was run: as §1

HARA = test system: HARA
How it was run: as §1

SK-LU-1 = test system: SK-LU-1
How it was run: as §1

A549 = test system: A549
How it was run: as §1

COCC1(CO)C(=O)C2CCN1CC2 (stereo not drawn) [PRIMA-1MET] + NC(=O)Nc1cc(-c2cccc(F)c2)sc1C(=O)N[C@H]1CCCNC1 [AZD7762] (partner 0.2 µM)
relative viability (HCC-15; first compound 0.2 µM): 1.17 | relative viability (HCC-15; first compound 0.6325 µM): 1.22 | relative viability (HCC-15; first compound 2 µM): 1.4 | relative viability (HCC-15; first compound 6.325 µM): 1.26 | relative viability (HCC-15; first compound 20 µM): 1.16 | relative viability (NCI-H650; first compound 0.2 µM): 0.961 | relative viability (NCI-H650; first compound 0.6325 µM): 0.828 | relative viability (NCI-H650; first compound 2 µM): 0.983 | relative viability (NCI-H650; first compound 6.325 µM): 0.995 | relative viability (NCI-H650; first compound 20 µM): 0.148 | relative viability (NCI-H1915; first compound 0.2 µM): 0.745 | relative viability (NCI-H1915; first compound 0.6325 µM): 0.507 | relative viability (NCI-H1915; first compound 2 µM): 0.517 | relative viability (NCI-H1915; first compound 6.325 µM): 0.82 | relative viability (NCI-H1915; first compound 20 µM): 0.657 | relative viability (NCI-H1703; first compound 0.6325 µM): 0.158 | relative viability (NCI-H1703; first compound 6.325 µM): 0.121 | relative viability (NCI-H1703; first compound 20 µM): 0.0239 | relative viability (NCI-H1648; first compound 0.2 µM): 0.729 | relative viability (NCI-H1648; first compound 2 µM): 0.655 | relative viability (NCI-H1648; first compound 20 µM): 0.663 | relative viability (NCI-H1975; first compound 0.2 µM): 0.807 | relative viability (NCI-H1975; first compound 0.6325 µM): 0.648 | relative viability (NCI-H1975; first compound 2 µM): 0.651 | relative viability (NCI-H1975; first compound 6.325 µM): 0.811 | relative viability (NCI-H1975; first compound 20 µM): 0.181 | relative viability (NCI-H1793; first compound 0.2 µM): 0.408 | relative viability (NCI-H1793; first compound 0.6325 µM): 0.651 | relative viability (NCI-H1793; first compound 6.325 µM): 0.685 | relative viability (NCI-H1793; first compound 20 µM): 0.382 | relative viability (HARA; first compound 0.2 µM): 0.308 | relative viability (HARA; first compound 0.6325 µM): 0.265 | relative viability (HARA; first compound 2 µM): 0.493 | relative viability (HARA; first compound 6.325 µM): 0.333 | relative viability (HARA; first compound 20 µM): 0.254

COCC1(CO)C(=O)C2CCN1CC2 (stereo not drawn) [PRIMA-1MET] + Nc1nc2[nH]cc(CCc3ccc(C(=O)N[C@@H](CCC(=O)O)C(=O)O)cc3)c2c(=O)[nH]1 [Pemetrexed] (partner 0.2 µM)
relative viability (HCC-15; first compound 0.2 µM): 0.213 | relative viability (HCC-15; first compound 0.6325 µM): 0.214 | relative viability (HCC-15; first compound 2 µM): 0.212 | relative viability (HCC-15; first compound 6.325 µM): 0.21 | relative viability (HCC-15; first compound 20 µM): 0.217 | relative viability (NCI-H650; first compound 0.2 µM): 1.26 | relative viability (NCI-H650; first compound 0.6325 µM): 0.894 | relative viability (NCI-H650; first compound 2 µM): 0.884 | relative viability (NCI-H650; first compound 6.325 µM): 0.978 | relative viability (NCI-H650; first compound 20 µM): 0.263 | relative viability (SK-LU-1; first compound 0.2 µM): 1.01 | relative viability (SK-LU-1; first compound 0.6325 µM): 1.12 | relative viability (SK-LU-1; first compound 2 µM): 1.01 | relative viability (SK-LU-1; first compound 6.325 µM): 0.955 | relative viability (SK-LU-1; first compound 20 µM): 0.652 | relative viability (NCI-H1915; first compound 0.2 µM): 0.54 | relative viability (NCI-H1915; first compound 0.6325 µM): 0.522 | relative viability (NCI-H1915; first compound 2 µM): 0.466 | relative viability (NCI-H1915; first compound 6.325 µM): 0.511 | relative viability (NCI-H1915; first compound 20 µM): 0.467 | relative viability (NCI-H1648; first compound 0.2 µM): 0.72 | relative viability (NCI-H1648; first compound 2 µM): 0.776 | relative viability (NCI-H1648; first compound 20 µM): 0.637 | relative viability (NCI-H1975; first compound 0.2 µM): 0.31 | relative viability (NCI-H1975; first compound 0.6325 µM): 0.266 | relative viability (NCI-H1975; first compound 2 µM): 0.28 | relative viability (NCI-H1975; first compound 6.325 µM): 0.292 | relative viability (NCI-H1975; first compound 20 µM): 0.282 | relative viability (NCI-H1793; first compound 0.2 µM): 0.964 | relative viability (NCI-H1793; first compound 0.6325 µM): 0.803 | relative viability (NCI-H1793; first compound 6.325 µM): 1.09 | relative viability (NCI-H1793; first compound 20 µM): 0.919 | relative viability (HARA; first compound 0.2 µM): 0.278 | relative viability (HARA; first compound 0.6325 µM): 0.232 | relative viability (HARA; first compound 2 µM): 0.209 | relative viability (HARA; first compound 6.325 µM): 0.243 | relative viability (HARA; first compound 20 µM): 0.247

COCC1(CO)C(=O)C2CCN1CC2 (stereo not drawn) [PRIMA-1MET] + Nc1ncn([C@H]2C[C@H](O)[C@@H](CO)O2)c(=O)n1 [Decitabine] (partner 2 µM)
relative viability (HCC-15; first compound 0.2 µM): 0.663 | relative viability (HCC-15; first compound 0.6325 µM): 0.373 | relative viability (HCC-15; first compound 2 µM): 0.647 | relative viability (HCC-15; first compound 6.325 µM): 0.585 | relative viability (HCC-15; first compound 20 µM): 0.563 | relative viability (NCI-H650; first compound 0.2 µM): 0.315 | relative viability (NCI-H650; first compound 0.6325 µM): 0.255 | relative viability (NCI-H650; first compound 2 µM): 0.315 | relative viability (NCI-H650; first compound 6.325 µM): 0.332 | relative viability (NCI-H650; first compound 20 µM): 0.199 | relative viability (SK-LU-1; first compound 0.2 µM): 0.523 | relative viability (SK-LU-1; first compound 0.6325 µM): 0.513 | relative viability (SK-LU-1; first compound 2 µM): 0.503 | relative viability (SK-LU-1; first compound 6.325 µM): 0.707 | relative viability (SK-LU-1; first compound 20 µM): 0.593 | relative viability (NCI-H1915; first compound 0.2 µM): 0.278 | relative viability (NCI-H1915; first compound 0.6325 µM): 0.234 | relative viability (NCI-H1915; first compound 2 µM): 0.252 | relative viability (NCI-H1915; first compound 6.325 µM): 0.256 | relative viability (NCI-H1915; first compound 20 µM): 0.27 | relative viability (A549; first compound 0.2 µM): 0.284 | relative viability (A549; first compound 2 µM): 0.253 | relative viability (A549; first compound 6.325 µM): 0.25 | relative viability (A549; first compound 20 µM): 0.237 | relative viability (NCI-H1648; first compound 0.2 µM): 0.433 | relative viability (NCI-H1648; first compound 2 µM): 0.451 | relative viability (NCI-H1648; first compound 20 µM): 0.475 | relative viability (NCI-H1975; first compound 0.2 µM): 0.389 | relative viability (NCI-H1975; first compound 0.6325 µM): 0.329 | relative viability (NCI-H1975; first compound 2 µM): 0.343 | relative viability (NCI-H1975; first compound 6.325 µM): 0.431 | relative viability (NCI-H1975; first compound 20 µM): 0.371 | relative viability (NCI-H1793; first compound 0.2 µM): 0.484 | relative viability (NCI-H1793; first compound 0.6325 µM): 0.333 | relative viability (NCI-H1793; first compound 6.325 µM): 0.489 | relative viability (NCI-H1793; first compound 20 µM): 0.424 | relative viability (HARA; first compound 0.2 µM): 0.478 | relative viability (HARA; first compound 0.6325 µM): 0.354 | relative viability (HARA; first compound 2 µM): 0.622 | relative viability (HARA; first compound 6.325 µM): 0.607 | relative viability (HARA; first compound 20 µM): 0.607

From the supplement of paper PMC10307832
